Test results reported in patent publication US20230255946A1 (Pure Tech LYT 100, Inc., priority 2020, published 2023).
Where two headings read alike, the source gives them in different places. Marks after values point to notes of the source that are not given here.

Columns and labels:
[1] = Repeat dose oral toxicity and toxicokinetics study in Sprague Dawley rats
Description: The protocol was amended to add additional TK male animals in Group 6 for Day 1 collection of TK samples at 875 mg/kg.
Blood samples were collected from 3 subsets of 3 animals/sex on Day 1 and Day 28 at predose, 0.25, 0.5, 1, 2, 4, 8 and 24 hours (hr) post-dose for groups 2 to 6 and from one subset of 3 animals/sex at 0.25 hr post-dose for the vehicle group (group 1). […] Non-compartmental analysis (NCA) of plasma concentration data was conducted using Phoenix® WinNonlin®, version 8.0.

[2] = Phase 1 Multiple Ascending Dose (MAD) study Part 1, plasma pharmacokinetics
Description: All Part 1 cohorts will be dosed every 12 hours with food for 5 days.
During the treatment period (Day 1 through Day 5), participants will be administered their assigned study medication BID, every 12 h ± 0.25 h (with approximately 240 mL of non-carbonated water), 30 minutes after the start of consumption of their standardised breakfast or dinner (12 h apart). A standardised lunch will be served ≥ 4 h post breakfast and ≥ 4 h prior to dinner. An evening snack will be served ≥ 3 h following evening study medication administration. No additional fluids will be allowed during the 1 h pre- and post-doses. On Day 6, subjects will replicate mealtimes as scheduled on Day 1-5.
In Part 1, blood samples (4 mL each) for PK will be collected for Cohorts 1, 2, 3, 4, and 6 at specified times (hours) at each as follows: • Day 1 and Day 5: 0 (pre-dose), 0.5, 1, 1.5, 2, 2.5, 3, 3.5, 4, 6, 8, 12 (pre-dose), 13, 14, 15, 16, 18 h • Day 2, Day 3 and Day 4: 0 (pre-morning-dose) and 12 h (pre-evening-dose) • Day 6: 12, 18, 24 and 36 h post-last dose • Day 7: 48 h (post-last dose)
Pharmacokinetics for Day 1 to 3 in Part 2 (fed state) will be compared to PK for Day 1 to Day 3 in Part 2 (fasted state). Plasma PK parameters (non-compartmental or compartmental analysis as appropriate) will include, but are not limited to: • Following single dose: Tmax, tlag, Cmax, AUC0-4, AUC0-last, t½, AUC0-inf, lambda z, %AUCext, CL/F, Vz/F, Cmax/D, AUC0-last/D, AUC0-inf/D and MRT (D is dose) • After repeated doses: Ctrough, Ctrough/D • Following repeated doses on last day: Tmax, Cmax, Cavg, tlag, t½, AUC0-4, AUC0-last, AUC0-inf, lambda z, %AUCext, CLss/F, Vzss/F, MRT, PTF, Rac(AUC), Rac(Cmax), Cmax/D, AUClast/D, AUC0-inf/D and Rac (accumulation ratio)
All cohorts (n=6 each) were dosed every 12 hours with food for 5 days at either 100, 250, 500, or 750 mg BID. […] Following processing, the samples were analyzed by HPLC on a Phenomenex Luna PFP(2), 3 µm, 50 x 2.0 mm column, and the eluates were monitored by an API4000 MS/MS detector in positive MRM mode. The data were acquired and processed by the data acquisition system Analyst® (Sciex).

[3] = Single dose, double-blinded, cross-over clinical trial of 801 mg LYT-100 vs pirfenidone, safety and pharmacokinetics; settings: for Metabolite/Parent Ratio, AUC0-∞, Mean / Metabolite/Parent Ratio, Cmax, Mean: MW-corrected; for metabolite as percent of parent in terms of AUC: single 801 mg dose; for Cmax / tmax: 5-hydroxymethyl metabolite after 801 mg of parent (LYT-110 after LYT-100, LYT-111 after pirfenidone); for Cmax / AUC0-t / AUC(inf) / Kel / t½: Mean (CV%); for tmax: Median (Range); for AUC0-t / AUC(inf) / Kel / t½: 5-hydroxymethyl metabolite after 801 mg of parent; for AUC(inf) / Kel / t½: n=23 LYT-110, n=19 LYT-111
Excerpt: (§1) Following screening, eligible healthy volunteer subjects were admitted to a single clinical study site and were randomized to 1 of 2 treatment sequences. […] In each period, a standardized breakfast was provided to subjects prior to administration of study drug (to compare the PK profiles in the clinically relevant fed state) and plasma samples were collected over a 48-hour period after dosing for evaluation of PK. Dosing between the 2 periods was separated by a minimum of 7 days. Subjects completed the study upon completion of the 48-hour post-dose assessments following dosing period 2.
(§2) All capsules were identical in size, shape, and external color.

[4] = human, in vivo, 48 h
Excerpt: as §1, §2

[5] = cited from earlier work
[6] = cited from earlier work; remark: listed apart in the source
[7] = Day 1, Female, deuterated analyte / non-deuterated counterpart
[8] = across dose groups 100, 250, 500, 750 mg BID (FIG. 20)
[9] = across dose groups 100, 250, 500, 750, 1000 mg BID (FIG. 26)
[10] = after 801 mg LYT-100 (parent LYT-100)
[11] = after 801 mg pirfenidone (parent LYT-101)
[12] = Lancaster et al. 2017, frequencies as high as
[13] = patients aged at least 80 years
[14] = single-center retrospective study of 351 patients

[2H]C([2H])([2H])c1ccc(=O)n(-c2ccc(O)cc2)c1 [LYT-103, d3-4′-hydroxy-pirfenidone]
similarity in exposure (AUC ratio), Group 4 (LYT-100 at 750 mg/kg) / Group 5 (SD-559 at 750 mg/kg) [1, 7]: 21.77 | similarity in exposure (AUC ratio), Group 4 (LYT-100 at 750 mg/kg) / Group 5 (SD-559 at 750 mg/kg) ([1]; Day 1, Male): 34.51 | similarity in exposure (AUC ratio), Group 4 (LYT-100 at 750 mg/kg) / Group 5 (SD-559 at 750 mg/kg) ([1]; Day 28, Female): 38.04 | average ratio to the parent (M/P) by AUC ([2]; Cohort 4, 750 mg BID LYT-100): 0.0017 (0.0012-0.0022) | average ratio to the parent (M/P) by AUC ([2]; Cohort 6, 1000 mg BID LYT-100): 0.0037 (0.0030-0.0058) | AUC accumulation ratio (AUC96-108/AUC0-12) [2, 8]: ~ 1 | AUC accumulation ratio (AUC96-108/AUC0-12) [2, 9]: ~ 1 | Metabolite/Parent Ratio, AUC0-∞, Maximum [3, 10]: 0.2% | Metabolite/Parent Ratio, AUC0-∞, Median [3, 10]: 0.1% | Metabolite/Parent Ratio, AUC0-∞, Minimum [3, 10]: 0.1% | Metabolite/Parent Ratio, Cmax, Maximum [3, 10]: 0.2% | Metabolite/Parent Ratio, Cmax, Median [3, 10]: 0.1% | Metabolite/Parent Ratio, Cmax, Minimum [3, 10]: 0.1% | Metabolite/Parent Ratio, AUC0-∞, Mean [3, 10]: 0.1% | Metabolite/Parent Ratio, Cmax, Mean [3, 10]: 0.1% | quantifiability of metabolite in human plasma ([3]; after LYT-100 801 mg): not quantifiable

Cc1ccc(=O)n(-c2ccc(O)cc2)c1 [LYT-104, 4′-hydroxy-pirfenidone]
Metabolite/Parent Ratio, Cmax, Maximum [3, 11]: 0.1% | Metabolite/Parent Ratio, Cmax, Median [3, 11]: 0.0% | Metabolite/Parent Ratio, Cmax, Minimum [3, 11]: 0.0% | Metabolite/Parent Ratio, Cmax, Mean [3, 11]: 0.0% | metabolite as percent of parent in terms of AUC [3]: less than 2%

[2H]C([2H])(O)c1ccc(=O)n(-c2ccccc2)c1 [LYT-110, d2-5-hydroxymethyl-pirfenidone]
Cmax in rat relative to human ([1]; 750 mg/kg LYT-100, Day 1, male rat vs human 801 mg): ~1825 fold | exposure (AUC) in rat relative to human ([1]; 750 mg/kg LYT-100, Day 1, male rats vs human 801 mg): about 1250 fold | similarity in exposure (AUC ratio), Group 4 (LYT-100 at 750 mg/kg) / Group 5 (SD-559 at 750 mg/kg) [1, 7]: 2.50 | similarity in exposure (AUC ratio), Group 4 (LYT-100 at 750 mg/kg) / Group 5 (SD-559 at 750 mg/kg) ([1]; Day 1, Male): 2.22 | similarity in exposure (AUC ratio), Group 4 (LYT-100 at 750 mg/kg) / Group 5 (SD-559 at 750 mg/kg) ([1]; Day 28, Female): 2.59 | similarity in exposure (AUC ratio), Group 4 (LYT-100 at 750 mg/kg) / Group 5 (SD-559 at 750 mg/kg) ([1]; Day 28, Male): 2.54 | exposure and Cmax vs. non-deuterated corresponding metabolite (SD-788) ([1]; SD-560 750 mg/kg vs SD-559 750 mg/kg, all days, both genders): almost twice | exposure in rats relative to humans ([1]; male rat after 28 days of daily dosing vs human): ~1600 fold | average ratio to the parent (M/P) by AUC ([2]; Cohort 4, 750 mg BID LYT-100): 0.0025 (0.0020-0.0029) | average ratio to the parent (M/P) by AUC ([2]; Cohort 6, 1000 mg BID LYT-100): 0.0028 (0.0018-0.0038) | AUC accumulation ratio (AUC96-108/AUC0-12) [2, 8]: ~ 1 | AUC accumulation ratio (AUC96-108/AUC0-12) [2, 9]: ~ 1 | Cmax [3]: 20.6 (30%) ng/mL | tmax [3]: 2.50 (1.00 - 4.00) hr | AUC0-t [3]: 111 (32%) hr*ng/mL | AUC(inf) [3]: 124 (32%) ^a hr*ng/mL | Kel [3]: 0.294 (44%) ^a ⅟hr | t½ [3]: 2.76 (38%) ^a hr | Metabolite/Parent Ratio, AUC0-∞, Maximum [3, 10]: 0.4% | Metabolite/Parent Ratio, AUC0-∞, Median [3, 10]: 0.2% | Metabolite/Parent Ratio, AUC0-∞, Minimum [3, 10]: 0.1% | Metabolite/Parent Ratio, Cmax, Maximum [3, 10]: 0.4% | Metabolite/Parent Ratio, Cmax, Median [3, 10]: 0.2% | Metabolite/Parent Ratio, Cmax, Minimum [3, 10]: 0.1% | Metabolite/Parent Ratio, AUC0-∞, Mean [3, 10]: 0.2% | Metabolite/Parent Ratio, Cmax, Mean [3, 10]: 0.2%

O=c1ccc(CO)cn1-c1ccccc1 [LYT-111, 5-hydroxymethyl-pirfenidone]
Cmax [3]: 17.1 (36%) ng/mL | tmax [3]: 2.50 (1.50 - 4.00) hr | AUC0-t [3]: 75.8 (42%) hr*ng/mL | AUC(inf) [3]: 89.7 (41%) ^b hr*ng/mL | Kel [3]: 0.367 (29%) ^b ⅟hr | t½ [3]: 2.04 (29%) ^b hr | Metabolite/Parent Ratio, AUC0-∞, Maximum [3, 11]: 0.4% | Metabolite/Parent Ratio, AUC0-∞, Median [3, 11]: 0.2% | Metabolite/Parent Ratio, AUC0-∞, Minimum [3, 11]: 0.1% | Metabolite/Parent Ratio, Cmax, Maximum [3, 11]: 0.4% | Metabolite/Parent Ratio, Cmax, Median [3, 11]: 0.2% | Metabolite/Parent Ratio, Cmax, Minimum [3, 11]: 0.1% | Metabolite/Parent Ratio, AUC0-∞, Mean [3, 11]: 0.2% | Metabolite/Parent Ratio, Cmax, Mean [3, 11]: 0.2% | metabolite as percent of parent in terms of AUC [3]: less than 2%

Cc1ccc(=O)n(-c2ccccc2)c1 [pirfenidone, 5-methyl-1-phenyl-1H-pyridin-2-one]
tolerability of single doses [4]: well tolerated | AUC, % Change Fed vs Fasted ([5]; Pirfenidone @ 800 mg): -15% | Cmax, % Change Fed vs Fasted ([5]; Pirfenidone @ 800 mg): -49% | Tmax, % Change Fed vs Fasted ([5]; Pirfenidone @ 800 mg): +500% | increase in Tmax, fed vs fasted ([5]; pirfenidone): 500% | diarrhea, TEAE frequency [6, 12]: ≤ 27.6 per 100PEY | fatigue, TEAE frequency [6, 12]: ≤ 52.4 per 100PEY | nausea, TEAE frequency [6, 12]: ≤ 62.1 per 100 PEY | adverse drug reactions leading to permanent treatment discontinuation ([6]; PASSPORT study, Cottin et al. 2018): 28.7% | patients who had an adverse event ([6]; compassionate use program, Raghu & Thickett 2013): 44% | half-life ([6]; in humans): about 2.5 hours | ADR leading to discontinuation ([6]; patients aged <65 years): 7.5% | ADR leading to discontinuation [6, 13]: 20.9% | ADR leading to dose modification/interruption [6, 13]: 32.7% | ADR leading to dose modification/interruption ([6]; patients aged less than 65 years): 18.0% | elevations of AST and ALT levels to >3× ULN ([6]; phase III trials): 3.2% | loss of appetite [6, 14]: 17% | nausea/vomiting [6, 14]: 15% | reported AEs that were GI-related [6, 14]: 75%
